The record followed here is patent US5622962A, “5α-reductase inhibitors” (priority 1995, dated 1997).

In general, inhibition refers to the percentage by which the read-out fell short of the control.

Molecules are shown by their SMILES. Read-outs that look alike come from different tables or passages of the source.

Assay [1] has as its target T1, Type I 5α-Reductase from Human Scalp (Homo sapiens, UniProt P18405).
T1 construct: Scalp punch biopsies from graft recipient sites were obtained from human hair transplant procedures; from tissue; host or cells: human scalp punch biopsies (hair transplant graft recipient sites), homogenate, 100,000×g pellet
T1 sequence (P18405 1-259): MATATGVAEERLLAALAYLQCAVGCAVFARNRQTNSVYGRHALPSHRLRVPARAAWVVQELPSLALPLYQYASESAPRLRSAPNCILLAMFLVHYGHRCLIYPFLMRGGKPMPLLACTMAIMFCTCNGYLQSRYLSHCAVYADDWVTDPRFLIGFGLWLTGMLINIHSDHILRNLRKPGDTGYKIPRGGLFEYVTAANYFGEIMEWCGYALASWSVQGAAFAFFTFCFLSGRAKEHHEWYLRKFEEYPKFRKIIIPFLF
Put plainly: Human Type I 5α-reductase assay (conversion of [3H]-testosterone to 5α-reduced metabolites). It counts as biochemical.

For assay [2], the target named is T2, Type II 5α-Reductase from Human Prostate (Homo sapiens, UniProt P31213).
T2 construct: The same procedure as above was used for preparations using tissue from prostate surgery; from tissue; host or cells: human prostate tissue from surgery, homogenate, 100,000×g pellet
T2 sequence (P31213 1-254): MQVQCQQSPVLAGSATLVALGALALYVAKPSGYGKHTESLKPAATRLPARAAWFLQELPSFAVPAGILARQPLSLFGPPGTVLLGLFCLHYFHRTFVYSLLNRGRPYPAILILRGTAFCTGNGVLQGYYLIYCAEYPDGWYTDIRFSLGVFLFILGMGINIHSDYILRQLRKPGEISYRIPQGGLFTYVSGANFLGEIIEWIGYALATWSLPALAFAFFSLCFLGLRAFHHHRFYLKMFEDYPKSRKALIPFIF
Put plainly: Human Type II 5α-reductase assay (conversion of [3H]-testosterone to 5α-reduced metabolites). It counts as biochemical.

[3] abbreviates: pH 7.5, 0.3 μM, 50 nM [3H]-testosterone, pH 7.5, 25°, 180 min, compared to control reaction mixtures, read-out: percent inhibition of Type I AR.
The mark [4] stands for this setting: pH 5.5, 0.3 μM, sodium acetate pH 5.5, 25°, 30 min, compared to control reaction mixtures, read-out: percent inhibition of Type II AR.

On to `C[C@]12CCC(=O)N[C@@H]1CCc1cc(Sc3ccccn3)ccc12` [Example 21, (4aR)-(10bR)-8-(2-pyridinylthio)-10b-methyl-1,2,3,4,4a,5,6,10b-octahydrobenzo[f]quinolin-3-one], for which the inhibition at 0.3 µM in assay [1] (setting [3]) is 27%; in assay [2] (setting [4]) it was 42%.
On the same counts, the results for `C[C@]12CCC(=O)N[C@@H]1CCc1cc(SCc3ccccc3)ccc12` [Example 23, (4aR)-(10bR)-8-benzylthio-10b-methyl-1,2,3,4,4a,5,6,10b-octahydrobenzo[f]quinolin-3-one] are 59% and 31%.
Taken in the same sequence, the figures for `CN1C(=O)CC[C@]2(C)c3ccc(-c4ccc(Cl)c(C(F)(F)F)c4)cc3CC[C@@H]12` [Example 24, (+)-(4aR)-(10bR)-4-methyl-8-(4-chloro-3-trifluoromethylphenyl)-10b-methyl-1,2,3,4,4a,5,6,10b-octahydrobenzo[f]-quinolin-3-one] were 88% and 28%.
Taken in the same sequence, the figures for `CN1C(=O)CC[C@]2(C)c3ccc(-c4ccc(O)c(Cl)c4)cc3CC[C@@H]12` [Example 25, (+)-(4aR)-(10bR)-4-methyl-8-(3-chloro-4-hydroxyphenyl)-10b-methyl-1,2,3,4,4a,5,6,10b-octahydrobenzo[f]quinolin-3-one] were 83% and 31%.
Turning to `CN1C(=O)CC[C@]2(C)c3ccc(-c4ccc(O)c(F)c4)cc3CC[C@@H]12` [Example 28, (+)-(4aR)-(10bR)-4-methyl-8-(3-fluoro-4-hydroxyphenyl)-10b-methyl-1,2,3,4,4a,5,6,10b-octahydrobenzo[f]quinolin-3-one], the figures for the inhibition at 0.3 µM in assay [1] (setting [3]) and in assay [2] (setting [4]) were 65% and 36%, respectively.
Consider `CN1C(=O)CC[C@]2(C)c3ccc(-c4ccc5c(c4)OCCO5)cc3CC[C@@H]12` [Example 29, (+)-(4aR)-(10bR)-4-methyl-8-(3,4-ethylenedioxyphenyl)-10b-methyl-1,2,3,4,4a,5,6,10b-octahydrobenzo[f]quinolin-3-one], for which the inhibition at 0.3 µM in assay [1] (setting [3]) was determined as 78%; in assay [2] (setting [4]), 26%.
Taken in the same sequence, the figures for `CN1C(=O)CC[C@]2(C)c3ccc(-c4cc(C(C)(C)C)c(O)c(C(C)(C)C)c4)cc3CC[C@@H]12` [Example 30, (+)-(4aR)-(10bR)-4-methyl-8-(3,5-di [t-butyl]-4-hydroxyphenyl)-10b-methyl-1,2,3,4,4a,5,6,10b-octahydrobenzo[f]quinolin-3-one] were 19% and 21%.
For the compound `CN1C(=O)CC[C@]2(C)c3ccc(-c4ccc(F)cc4C(F)(F)F)cc3CC[C@@H]12` [Example 31, (+)-(4aR)-(10bR)-4-methyl-8-(2-trifluoromethyl-4-fluorophenyl)-10b-methyl-1,2,3,4,4a,5,6,10b-octahydrobenzo[f]-quinolin-3-one], the inhibition at 0.3 µM in assay [1] (pH 7.5, read-out: percent inhibition of Type I AR) was 84%; in assay [2] (pH 5.5, read-out: percent inhibition of Type II AR) it was 22%.
Consider `CN1C(=O)CC[C@]2(C)c3ccc(-c4ccc(NC(=O)C(C)(C)C)c5ccccc45)cc3CC[C@@H]12` [Example 32, (+)-(4aR)-(10bR)-4-methyl-8-(1-[4-t-butylcarbonylamino]naphthyl)-10b-methyl-1,2,3,4,4a,5,6,10b-octahydrobenzo[f]-quinolin-3-one], for which the inhibition at 0.3 µM is 71% in assay [1] (setting [3]) and 18% in assay [2] (setting [4]).
For `CN1C(=O)CC[C@]2(C)c3ccc(-c4cc(C(F)(F)F)ccc4Cl)cc3CC[C@@H]12` [Example 33, (+)-(4aR)-(10bR)-4-methyl-8-(2-chloro-5-trifluoromethylphenyl)-10b-methyl-1,2,3,4,4a,5,6,10b-octahydrobenzo[f]-quinolin-3-one], the values for the inhibition at 0.3 µM in assay [1] (setting [3]) and in assay [2] (setting [4]) were 55% and 40%, respectively.
Take `CN1C(=O)CC[C@]2(C)c3ccc(-c4cccc(C(=O)NC(C)(C)C)c4)cc3CC[C@@H]12` [Example 34, (+)-(4aR)-(10bR)-4-methyl-8-(3-t-butylcarboxamidophenyl)-10b-methyl-1,2,3,4,4a,5,6,10b-octahydrobenzo[f]quinolin-3-one]: the inhibition at 0.3 µM in assay [1] (setting [3]) worked out at 13%; in assay [2] (setting [4]) it was 5%.
`CCN(CC)C(=O)c1c(-c2ccc3c(c2)CC[C@H]2N(C)C(=O)CC[C@]32C)ccc2ccccc12` [Example 35, (+)-(4aR)-(10bR)-4-methyl-8-(2-[1-diethylcarboxamido]naphthyl)-10b-methyl-1,2,3,4,4a,5,6,10b-octahydrobenzo[f]-quinolin-3-one]: the figures for the inhibition at 0.3 µM in assay [1] (setting [3]) and in assay [2] (setting [4]) were 17% and 27%, respectively.
Regarding `COc1cc(-c2ccc3c(c2)CC[C@H]2N(C)C(=O)CC[C@]32C)ccc1O` [Example 36, (+)-(4aR)-(10bR)-4-methyl-8-(4-hydroxy-3-methoxyphenyl)-10b-methyl-1,2,3,4,4a,5,6,10b-octahydrobenzo[f]quinolin-3-one], the inhibition at 0.3 µM in assay [1] (setting [3]) was 41%; in assay [2] (setting [4]), 52%.
Taken in the same sequence, the figures for `CN1C(=O)CC[C@]2(C)c3ccc(-c4ccc(NC(=O)C(C)(C)C)cc4)cc3CC[C@@H]12` [Example 37, (+)-(4aR)-(10bR)-4-methyl-8-(4-t-butylcarbonylaminophenyl)-10b-methyl-1,2,3,4,4a,5,6,10b-octahydrobenzo[f]quinolin-3-one] were 72% and 58%.
Take `CN1C(=O)CC[C@]2(C)c3ccc(-c4ccccc4F)cc3CC[C@@H]12` [Example 38, (+)-(4aR)-(10bR)-4-methyl-8-(2-fluorophenyl)-10b-methyl-1,2,3,4,4a,5,6,10b-octahydrobenzo[f]quinolin-3-one]: the results for the inhibition at 0.3 µM in assay [1] (setting [3]) and in assay [2] (setting [4]) were 84% and 56%, respectively. The “percent inhibition of Type II AR” value in assay [2] (0.3 μM, sodium acetate pH 5.5, 25°, 30 min, compared to control reaction mixtures) was found to be 38%.
Take `COc1ccccc1-c1ccc2c(c1)CC[C@H]1N(C)C(=O)CC[C@]21C` [Example 39, (+)-(4aR)-(10bR)-4-methyl-8-(2-methoxyphenyl)-10b-methyl-1,2,3,4,4a,5,6,10b-octahydrobenzo[f]quinolin-3-one]: the inhibition at 0.3 µM in assay [1] (setting [3]) came to 81%; in assay [2] (setting [4]) it was 34%.
Taken in the same sequence, the figures for `Cc1ccccc1-c1ccc2c(c1)CC[C@H]1N(C)C(=O)CC[C@]21C` [Example 40, (+)-(4aR)-(10bR)-4-methyl-8-(2-methylphenyl)-10b-methyl-1,2,3,4,4a,5,6,10b-octahydrobenzo[f]quinolin-3-one] were 90% and 35%.
For the compound `CN1C(=O)CC[C@]2(C)c3ccc(-c4ccccc4Cl)cc3CC[C@@H]12` [Example 41, (+)-(4aR)-(10bR)-4-methyl-8-(2-chlorophenyl)-10b-methyl-1,2,3,4,4a,5,6,10b-octahydrobenzo[f]quinolin-3-one], the values for the inhibition at 0.3 µM in assay [1] (setting [3]) and in assay [2] (setting [4]) were 88% and 18%, respectively.
As for `CN1C(=O)CC[C@]2(C)c3ccc(-c4ccccc4C(F)(F)F)cc3CC[C@@H]12` [Example 43, (+)-(4aR)-(10bR)-4-methyl-8-(2-trifluoromethylphenyl)-10b-methyl-1,2,3,4,4a,5,6,10b-octahydrobenzo[f]quinolin-3-one], the results for the inhibition at 0.3 µM in assay [1] (setting [3]) and in assay [2] (setting [4]) were 68% and 18%, respectively.
Taken in the same sequence, the figures for `CN1C(=O)CC[C@]2(C)c3ccc(-c4ccc(F)c(C(F)(F)F)c4)cc3CC[C@@H]12` [Example 46, (+)-(4aR)-(10bR)-4-methyl-8-(4-fluoro-3-trifluoromethylphenyl)-10b-methyl-1,2,3,4,4a,5,6,10b-octahydrobenzo[f]-quinolin-3-one] were 3% and 31%.
On the same counts, the results for `CN1C(=O)CC[C@]2(C)c3ccc(-c4ccccc4)cc3CC[C@@H]12` [Example 49, (+)-(4aR)-(10bR)-4-methyl-8-phenyl-10b-methyl-1,2,3,4,4a,5,6,10b-octahydrobenzo[f]quinolin-3-one] are 96% and 4%.
Consider `CN1C(=O)CC[C@]2(C)c3ccc(-c4ccc(Cl)cc4)cc3CC[C@@H]12` [Example 50, (+)-(4aR)-(10bR)-4-methyl-8-(4-chlorophenyl)-10b-methyl-1,2,3,4,4a,5,6,10b-octahydrobenzo[f]quinolin-3-one], for which the “percent inhibition of Type I AR” value in assay [1] (0.3 μM, 50 nM [3H]-testosterone, pH 7.5, 25°, 180 min, compared to control reaction mixtures) is 94%. The inhibition at 0.3 µM worked out at 95% in assay [1] (setting [3]) and 32% in assay [2] (setting [4]).
For the compound `Cc1ccc(-c2ccc3c(c2)CC[C@H]2N(C)C(=O)CC[C@]32C)cc1` [Example 51, (+)-(4aR)-(10bR)-4-methyl-8-(4-methylphenyl)-10b-methyl-1,2,3,4,4a,5,6,10b-octahydrobenzo[f]quinolin-3-one], the inhibition at 0.3 µM was determined as 91% in assay [1] (setting [3]) and 14% in assay [2] (setting [4]).
